Data on 19 compounds can be found in patent publication US20040043959A1, “Combination therapies for treating methylthioadenosine phosphorylase deficient cells” (priority 2002, published 2004).

The target in the test is T1, Human MTAP (Homo sapiens, UniProt Q13126).
T1 construct: six-histidine tag (His6) (N); made in house; host or cells: E. coli BL21 DE3
T1 sequence (Q13126 1-283): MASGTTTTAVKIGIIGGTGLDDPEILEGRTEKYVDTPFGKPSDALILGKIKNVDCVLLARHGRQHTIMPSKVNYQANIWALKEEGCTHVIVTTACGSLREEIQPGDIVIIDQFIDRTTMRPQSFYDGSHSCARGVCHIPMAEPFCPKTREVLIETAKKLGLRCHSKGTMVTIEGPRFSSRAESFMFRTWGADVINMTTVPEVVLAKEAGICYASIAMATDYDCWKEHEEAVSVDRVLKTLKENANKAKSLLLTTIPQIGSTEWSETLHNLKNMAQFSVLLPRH
As to the kind of experiment: MTAP substrate assay, coupled spectrophotometric (adenine, xanthine oxidase). Format: biochemical. To be noted: 2 nM MTAP; for activity at 50 µM: 10 min, compound 50 uM, relative to MTA at 50 uM, read-out: MT-A—50: initial velocity as a percentage of the initial velocity with MTA as substrate; for MT-A—10: initial velocity as a percentage of the initial velocity with MTA as substrate: compound 10 uM, relative to MTA at 10 uM. Put shortly:
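Detection was xanthine oxidase-coupled (0.8 units/ml), reading adenine-derived absorbance at 305 nm over 10 min in potassium phosphate/DTT buffer at 37° C, with N-His6 enzyme purified from E. coli.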

Regarding `CC(=O)NCCSC[C@H]1O[C@@H](n2cnc3c(N)ncnc32)[C@H](O)[C@@H]1O` [2(G)(114), N-[2-({[(2S, 3S, 4R, 5R)-5-(6-amino-9H-purin-9-yl)-3,4-dihydroxytetra-hydrofuran-2-yl]methyl}thio)ethyl]acetamide], the activity at 50 µM stood at 11% and the “MT-A—10: initial velocity as a percentage of the initial velocity with MTA as substrate” value was found to be 29%.

`CSc1ccc(SC[C@H]2O[C@@H](n3cnc4c(N)ncnc43)[C@H](O)[C@@H]2O)cc1` [2(G)(115), (2R, 3R, 4S, 5S)-2-(6-amino-9H-purin-9-yl)-5-({[4-(methylthio)phenyl]-thio}methyl)tetrahydro-furan-3,4-diol]: the activity at 50 µM is 15% and the “MT-A—10: initial velocity as a percentage of the initial velocity with MTA as substrate” value came out at 12%.

With `Nc1ncnc2c1ncn2[C@@H]1O[C@H](CSc2ccccc2OC(F)(F)F)[C@@H](O)[C@H]1O` [2(G)(116), (2R, 3R, 4S, 5S)-2-(6-amino-9H-purin-9-yl)-5-({[2-(trifluoromethoxy)-phenyl]thio}methyl)tetra-hydrofuran-3,4-diol], the activity at 50 µM was 7% and the “MT-A—10: initial velocity as a percentage of the initial velocity with MTA as substrate” value is recorded as 3%.

With `Nc1ncnc2c1ncn2[C@@H]1O[C@H](CSc2ccccc2F)[C@@H](O)[C@H]1O` [2(G)(117), (2R, 3R, 4S, 5S)-2-(6-amino-9H-purin-9-yl)-5-{[(2-fluorophenyl)thio)-methyl}tetrahydrofuran-3,4-diol], the activity at 50 µM came out at 28% and the “MT-A—10: initial velocity as a percentage of the initial velocity with MTA as substrate” value was 25%.

With `COc1ccc2[nH]c(SC[C@H]3O[C@@H](n4cnc5c(N)ncnc54)[C@H](O)[C@@H]3O)nc2c1` [2(G)(118), (2R, 3R, 4S, 5S)-2-(6-amino-9H-purin-9-yl)-5-{[(5-methoxy-1H-benzimidazol-2-yl)thio]methyl}tetrahydrofuran-3,4-diol], the activity at 50 µM was determined as 2.5% and the “MT-A—10: initial velocity as a percentage of the initial velocity with MTA as substrate” value came to 2.5%.

As for `Nc1ncnc2c1ncn2[C@@H]1O[C@H](CSc2nc3ccccc3[nH]2)[C@@H](O)[C@H]1O` [2(G)(119), (2R, 3R, 4S, 5S)-2-(6-amino-9H-purin-9-yl)-5-[(1H-benzimidazol-2-ylthio)methyl)tetrahydro-furan-3,4-diol], the activity at 50 µM was 26% and the “MT-A—10: initial velocity as a percentage of the initial velocity with MTA as substrate” value came to 12%.

For the compound `Cn1ccnc1SC[C@H]1O[C@@H](n2cnc3c(N)ncnc32)[C@H](O)[C@@H]1O` [2(G)(120), (2R, 3R, 4S, 5S)-2-(6-amino-9H-purin-9-yl)-5-{[(1-methyl-1H-imidazol-2-yl)thio)methyl}tetra-hydrofuran-3,4-diol], the activity at 50 µM was found to be 3% and the “MT-A—10: initial velocity as a percentage of the initial velocity with MTA as substrate” value worked out at 1%.

As to `CCCCCCCCCSC[C@H]1O[C@@H](n2cnc3c(N)ncnc32)[C@H](O)[C@@H]1O` [2(G)(121), (2R, 3R, 4S, 5S)-2-(6-amino-9H-purin-9-yl)-5-[(nonylthio)methyl]tetra-hydrofuran-3,4-diol], the activity at 50 µM was 54.5% and the “MT-A—10: initial velocity as a percentage of the initial velocity with MTA as substrate” value was found to be 64.5%.

Regarding `Nc1ncnc2c1ncn2[C@@H]1O[C@H](CSc2nc3ccccc3o2)[C@@H](O)[C@H]1O` [2(G)(122), (2R, 3R, 4S, 5S)-2-(6-amino-9H-purin-9-yl)-5-[(1,3-benzoxazol-2-ylthio)-methyl]tetrahydrofuran-3,4-diol], the activity at 50 µM is 37% and the “MT-A—10: initial velocity as a percentage of the initial velocity with MTA as substrate” value is 30.5%.

`Nc1ncnc2c1ncn2[C@@H]1O[C@H](CSC[C@@H]2NC(=O)NC2=O)[C@@H](O)[C@H]1O` [2(G)(123), (5R)-5-[({[(2S, 3S, 4R, 5R)-5-(6-amino-9H-purin-9-yl)-3,4-dihydroxytetra-hydrofuran-2-yl)methyl}thio)methyl]imidazo-lidine-2,4-dione]: the activity at 50 µM is 22% and the “MT-A—10: initial velocity as a percentage of the initial velocity with MTA as substrate” value is 23%.

`Nc1ncnc2c1ncn2[C@@H]1O[C@H](CSCc2ccc(Cl)cc2)[C@@H](O)[C@H]1O` [2(G)(124), (2R, 3R, 4S, 5S)-2-(6-amino-9H-purin-9-yl)-5-[{(4-chlorobenzyl)thio]-methyl}tetrahydrofuran-3,4-diol]: the activity at 50 µM amounted to 51% and the “MT-A—10: initial velocity as a percentage of the initial velocity with MTA as substrate” value is on record as 47%.

Take `CCCCCCCSC[C@H]1O[C@@H](n2cnc3c(N)ncnc32)[C@H](O)[C@@H]1O` [2(G)(125), (2R, 3R, 4S, 5S)-2-(6-amino-9H-purin-9-yl)-5-[(heptylthio)methyl]-tetrahydrofuran-3,4-diol]: the activity at 50 µM worked out at 62.5% and the “MT-A—10: initial velocity as a percentage of the initial velocity with MTA as substrate” value is reported as 101%.

On to `CCCCCCSC[C@H]1O[C@@H](n2cnc3c(N)ncnc32)[C@H](O)[C@@H]1O` [2(G)(126), (2R, 3R, 4S, 5S)-2-(6-amino-9H-purin-9-yl)-5-[(hexylthio)methyl]tetra-hydrofuran-3,4-diol], for which the activity at 50 µM was 67.5% and the “MT-A—10: initial velocity as a percentage of the initial velocity with MTA as substrate” value amounted to 72%.

Consider `Nc1ncnc2c1ncn2[C@@H]1O[C@H](CSCc2ccccc2F)[C@@H](O)[C@H]1O` [2(G)(127), (2R, 3R, 4S, 5S)-2-(6-amino-9H-purin-9-yl)-5-{[(2-fluorobenzyl)-thio]methyl}tetrahydro-furan-3,4-diol], for which the activity at 50 µM worked out at 58.5% and the “MT-A—10: initial velocity as a percentage of the initial velocity with MTA as substrate” value is listed as 56%.

As for `Nc1ncnc2c1ncn2[C@@H]1O[C@H](CSc2ccc(Cl)c(Cl)c2)[C@@H](O)[C@H]1O` [2(G)(128), (2R, 3R, 4S, 5S)-2-(6-amino-9H-purin-9-yl)-5{[(3,4-dichlorophenyl)-thio]methyl}tetrahydro-furan-3,4-diol], the activity at 50 µM amounted to 10.5% and the “MT-A—10: initial velocity as a percentage of the initial velocity with MTA as substrate” value came to 11%.

With `CCCCCCCCCCSC[C@H]1O[C@@H](n2cnc3c(N)ncnc32)[C@H](O)[C@@H]1O` [2(G)(129), (2R, 3R, 4S, 5S)-2-(6-amino-9H-purin-9-yl)-5-[(decylthio)methyl]tetra-hydrofuran-3,4-diol], the activity at 50 µM is 41.5% and the “MT-A—10: initial velocity as a percentage of the initial velocity with MTA as substrate” value was found to be 46%.

Turning to `Nc1ncnc2c1ncn2[C@@H]1O[C@H](CSc2ccc(Cl)cc2Cl)[C@@H](O)[C@H]1O` [2(G)(130), (2R, 3R, 4S, 5S)-2-(6-amino-9H-purin-9-yl)-5-{[(2,4-dichlorophenyl)-thio]methyl}tetrahydro-furan-3,4-diol], the activity at 50 µM was 4.5% and the “MT-A—10: initial velocity as a percentage of the initial velocity with MTA as substrate” value is given as −2%.

Take `Nc1ncnc2c1ncn2[C@@H]1O[C@H](CSc2cc(Cl)cc(Cl)c2)[C@@H](O)[C@H]1O` [2(G)(131), (2R, 3R, 4S, 5S)-2-(6-amino-9H-purin-9-yl)-5-{[(3,5-dichlorophenyl)-thio]methyl}tetrahydro-furan-3,4-diol]: the activity at 50 µM is 11% and the “MT-A—10: initial velocity as a percentage of the initial velocity with MTA as substrate” value was determined as 11.5%.

For the compound `CCOC(=O)c1c[nH]c(SC[C@H]2O[C@@H](n3cnc4c(N)ncnc43)[C@H](O)[C@@H]2O)n1` [2(G)(132), Ethyl 2-({[(2S, 3S, 4R, 5R)-5-(6-amino-9H-purin-9-yl)-3,4-dihydroxytetra-hydrofuran-2-yl]methyl}thio)-1H-imidazole-4-carboxylate], the activity at 50 µM worked out at 1.5% and the “MT-A—10: initial velocity as a percentage of the initial velocity with MTA as substrate” value stood at 0%.
